Experiments:
Type in all cases: physicochemical
[1] = Stability of Compound A in formulations with different adjuvants at 2-8°C (HPLC content, total impurities, moisture); conditions: stored at 2-8°C for 10 days; all formulation solvent systems
Experimental: For the aforementioned treated Formulations F1 to F4, their specific formulation information is as follows ("p": the formulation obtained by adding ELP to the formulations in Table 3): • F1p: 300 mg API, 7.5 g ELP, and absolute ethanol added to 30 ml; • F2-1p: 3 g propylene glycol, 300 mg API, 7.5 g ELP, and absolute ethanol added to 30 ml; • F2-2p: 9 g propylene glycol, 300 mg API, 7.5 g ELP, and absolute ethanol added to 30 ml; • F3-1p: 1.5 g glycerin, 300 mg API, 7.5 g ELP, and absolute ethanol added to 30 ml; • F3-2p: 4.5 g glycerin, 300 mg API, 7.5 g ELP, and absolute ethanol added to 30 ml; • F4-1: 3 g DMA, 300 mg API, and absolute ethanol added to 30 ml; • F4-2: 9 g DMA, 300 mg API, and absolute ethanol added to 30 ml; • F4-3: 15 g DMA, 300 mg API, and absolute ethanol added to 30 ml.
The stability of Compound A in the aforementioned formulations was investigated. At the predetermined time points (Day 0, Day 5, Day 10), 1 ml samples were taken for HPLC analysis to detect the content, total impurities, and moisture, respectively. Table 4: Stability of Compound A in formulations with different adjuvants at 2-8°C

[2] = Compatibility and stability study of ready-to-use intravenous injections (0.02 and 1.00 mg/ml in pH-adjusted 5% glucose injection); conditions: after filtration, room temperature, indoor ambient lighting
Experimental: In order to provide compatibility information for the injection of the compound of formula I (Compound A, API) and the compatibility solutions, it is necessary to investigate the short-term stability of the injection in 5% glucose injection, a commonly used intravenous diluent. Considering that the API is instable in acidic environments, the pH of the 5% glucose injection is first adjusted to 7.4 using a sodium bicarbonate solution.
1.0 ml of 5% sodium bicarbonate injection was added to 250 ml of 5% glucose injection to adjust the pH, and mixed homogeneously. At this point, the pH of the mixed solution was approximately 8.0.
The Compound A injection (2 ml: 20 mg) was prepared with the pH-adjusted 5% glucose injection into a compatibility solution with a concentration of 0.02 mg/ml, and a compatibility solution with a concentration of 1.00 mg/ml.
0.501 ml of Compound A injection (2 ml: 20 mg) was added to a mixing bag containing 250 ml of 5% glucose injection (whose pH had been pre-adjusted using 5% sodium bicarbonate injection). The mixing bag was repeatedly inverted to ensure homogeneous mixing of the mixed solution before storage and sampling.
27.8 ml of Compound A injection (2 ml: 20 mg) was added to a mixing bag containing 250 ml of 5% glucose injection (whose pH had been pre-adjusted using 5% sodium bicarbonate injection). […]

[3] = Solubility of Compound A in single adjuvant solvents at 25°C (supersaturated solution, sampled every 2 hours); conditions: organic solvent or mixture, thermodynamic from solid; for solubility at 0 h / solubility at 2 h / solubility at 4 h / solubility at 6 h: single solvent
Experimental: In order to increase the concentration of the active pharmaceutical ingredient in the injection, the solubility of the active pharmaceutical ingredient in single adjuvants was investigated to screen for optimal solvents, hydrotropic agents, or solubilizers. The solubility test of Compound A in single solvents was conducted as follows: Each of the single solvents was taken, a certain amount of API (the compound of formula I) was added at 25°C and stirred, and the dissolution of the API in the solvent system was observed. If the dissolution was complete, additional API was added continuously until a supersaturated solution was obtained. Samples were taken every 2 hours, filtered and assayed for content. Table 2: Solubility data of Compound A in single solvents at 25°C

[4] = Chiral stability study of the concentrated Compound A injection (-20±5°C, HPLC contents of A-P1 and A-P2); conditions: in its injection formulation
Experimental: (§1) Compound A is a racemic mixture containing one chiral center. Its two isomers, named A-P1 and A-P2, can be obtained by resolving Compound A. During the formulation and compatibility studies, interconversion between the chiral isomers may affect the drug safety. Therefore, it is necessary to study the chiral stability of Compound A in both its injection formulation and the compatibility drug solution of the injection formulation.
(§2) • (a) The concentrated injection formulation of Compound A (2 ml: 20 mg) was prepared according to the aforementioned confirmed Formulation F19 and its preparation method. • (b) The compatibility drug solution with a concentration of 1.00 mg/ml was prepared according to the process for preparing a compatibility solution as described in Section 5.1.
For the injection formulation of Compound A (concentrated injection), the formulation was stored under light-protected, sealed conditions at -20±5°C. Samples were taken at different time points (0 month, 1 month, 3 months), and the contents of A-P1 and A-P2 were determined using the aforementioned HPLC method for stability evaluation.

[5] = Solubility of Compound A in formulations with different adjuvants, observations before and after treatment
Excerpt: Compound A and Compound AST-3424 are structurally similar (both are nitrobenzyl derivatives and linked to a DNA alkylating agent with an aziridine structure that can effectively kill tumor cells). In addition, by releasing the DNA alkylating agent with an aziridine structure in tumor tissues or cells that overexpress the AKR1C3 enzyme, both compounds enable targeted recognition and treatment of any of the tumor tissues or cells that overexpress […] 1C3 (AKR1C3), and achieve the purpose of killing the tumor tissues or cells. Therefore, based on the same formulation development strategy, the inventors designed and selected an injection formulation similar to that of Compound AST-3424 (the optimal formulation of AST-3424: 10 mg/ml Compound AST-3424 + 75% ethanol + 25% propylene glycol) for use in the formulation study of Compound A.
In addition to the solvents used in the reference formulation of Compound AST-3424, absolute ethanol was employed as a commonly used and relatively safe non-aqueous solvent adjuvant for injection formulations. During the development of the product formulation, it was considered to add N,N-dimethylacetamide (DMA) or polyoxyethylene (35) castor oil (ELP) to improve solubility and facilitate the manufacturing convenience. […]

[6] = Solubility of Compound A in single solvents (water, acidic and alkaline aqueous solutions, isopropanol, methanol) at 25°C
Experimental: The solubility of Compound A in single solvents (water, acidic and alkaline aqueous solutions, isopropanol, and methanol) was investigated. Table 1: Solubility investigation of Compound A at 25°C

[7] = Chiral stability study of the 1.00 mg/ml compatibility drug solution of Compound A (room temperature, HPLC contents of A-P1 and A-P2); conditions: in the compatibility solution of the injection formulation
Experimental: as §1, §2
For the 1.00 mg/ml compatibility drug solution (ready-to-use injection), the solution was stored at room temperature (25°C ± 2°C) under indoor ambient lighting. Samples were taken at different time points (0 h, 2 h, 4 h, 8 h and 24 h) and the contents of A-P1 and A-P2 were determined using the aforementioned HPLC method to evaluate chiral stability. Table 27: Chiral stability study of the concentrated Compound A injection

[8] = Polyethylene glycol 400 (PEG 400)
[9] = Polyoxyethylene (35) castor oil (ELP)

With `O=[N+]([O-])c1ccc(C(OP(=O)(N2CC2)N2CC2)C(F)(F)F)cc1Oc1ccc(-c2ccc(F)cc2)c(F)c1` (racemic) [Compound A] as the compound, how does the “stability with respect to content, total impurities, and moisture” value [1] read?
Its value is “remained relatively stable”.

What about the “changes in traits, color and clarity of solution, osmotic pressure, pH value, content of Compound A, and related substances” value ([2]; 0.02 mg/ml compatibility solutions, within 8 hours) of the same compound?
Its value is “no significant changes”.

What about the “changes in traits, color and clarity of solution, osmotic pressure, pH value, and content of Compound A” value ([2]; 1.00 mg/ml compatibility solutions, within 6 hours) of the same compound?
Its value is “no significant changes”.

And the Solubility ([3]; N,N-dimethylacetamide (single solvent), in N,N-dimethylacetamide)?
The Solubility was > 200 mg/mL.

What about the Solubility ([3]; polyoxyethylene (35) castor oil (single solvent), in polyoxyethylene (35) castor oil) of the same compound?
Its Solubility is ~20 mg/mL.

What about the solubility at 0 h ([3]; Ethanol) of the same compound?
Its solubility at 0 h is 8.95 mg/mL.

What about the solubility at 2 h ([3]; Ethanol) of the same compound?
Its solubility at 2 h is 9.09 mg/mL.

And the solubility at 4 h ([3]; Ethanol)?
Its solubility at 4 h is 9.43 mg/mL.

What about the solubility at 6 h ([3]; Ethanol) of the same compound?
The solubility at 6 h was 9.28 mg/mL.

What about the solubility at 0 h ([3]; N,N-Dimethylacetamide (DMA)) of the same compound?
Its solubility at 0 h is 248 mg/mL.

What about the solubility at 2 h ([3]; N,N-Dimethylacetamide (DMA)) of the same compound?
The solubility at 2 h was 251 mg/mL.

And the solubility at 4 h ([3]; N,N-Dimethylacetamide (DMA))?
Its solubility at 4 h is 251 mg/mL.

What about the solubility at 6 h ([3]; N,N-Dimethylacetamide (DMA)) of the same compound?
The solubility at 6 h was 251 mg/mL.

What about the solubility at 0 h [3, 8] of the same compound?
The solubility at 0 h was 12.2 mg/mL.

And the solubility at 2 h [3, 8]?
Its solubility at 2 h is 11.2 mg/mL.

And the solubility at 4 h [3, 8]?
Its solubility at 4 h is 15.3 mg/mL.

And the solubility at 6 h [3, 8]?
The solubility at 6 h was 16 mg/mL.

And the solubility at 0 h [3, 9]?
Its solubility at 0 h is 18.6 mg/mL.

What about the solubility at 2 h [3, 9] of the same compound?
The solubility at 2 h was 20.7 mg/mL.

And the solubility at 4 h [3, 9]?
The solubility at 4 h was 20.7 mg/mL.

What about the solubility at 6 h [3, 9] of the same compound?
Its solubility at 6 h is 21.3 mg/mL.

What about the chiral stability [4] of the same compound?
Its chiral stability is “chirally stable”.

What about the “dissolution of Compound A” value ([5]; formulation prepared based on the formulation design of Compound AST-3424 (ethanol:propylene glycol 3:1, 300 mg in 30 ml)) of the same compound?
Its value is “cannot be completely dissolved”.

What about the Solubility ([5]; mixed solvent of ethanol and propylene glycol) of the same compound?
The Solubility was “poorly soluble”.

What about the Solubility ([6]; 0.1 mol/L HCl solution, 25°C) of the same compound?
The Solubility was “Practically insoluble”.

What about the Solubility ([6]; 0.1 mol/L NaOH solution, 25°C) of the same compound?
Its Solubility is “Practically insoluble”.

And the Solubility ([6]; Isopropanol, 25°C)?
Its Solubility is “Practically insoluble”.

And the Solubility ([6]; Methanol, 25°C)?
The Solubility was “Sparingly soluble”.

And the Solubility ([6]; Water, 25°C)?
Its Solubility is “Practically insoluble”.

What about the Solubility ([6]; in water, and acidic and alkaline aqueous solutions) of the same compound?
The Solubility was “extremely low solubility”.

What about the chiral stability [7] of the same compound?
Its chiral stability is “chirally stable”.
